# Experimental data from article PMC8472459, “In Vitro Phenotypic Activity and In Silico Analysis of Natural Products from Brazilian Biodiversity on Trypanosoma cruzi” (Molecules, 2021).
# Several values for one entry are separate records, joined by “and”; a condition that tells them apart may be missing. Equal entries are not always repeated. Where two headings read alike, the source gives them in different places.
# Experiments:
# [1] = Cardiotoxicity, primary cardiac cell cultures (PrestoBlue, light microscopy); type: cell-based; conditions: Swiss Webster, mouse
# Method: (§1) Primary cardiac cell cultures (CC) were obtained from Swiss Webster mice embryo hearts (18 gestation days) as described by Meirelles et al. and were used for toxicity assays. After purification, the cardiac cells were seeded (0.5 × 10^5 cells/well) in 96 wells microplates previously coated with 0.01% gelatin. The cardiac cultures were maintained in Dulbecco’s Modified Eagle’s Medium supplemented with 6% of FBS, 2.5 mM CaCl2, 1 mM L-glutamine, 1mM penicillin and 2% chicken embryo extract. Mice fibroblast of the line NTCL clone 929 (L929) were used for toxicity and anti-T. cruzi activity assays. L929 cells were seeded (4 × 10^3 cells/well) in 96 well microplates and kept in RPMI-1640 medium (Sigma-Aldrich, Missouri, EUA) supplemented with 10% FBS, 1% L-glutamine and 1% penicillin. The cell cultures were maintained at 37 °C at 5% CO2.
# (§2) Cell viability was assessed using PrestoBlue (for assay with CC) and AlamarBlue (for assays with L929) with fluorescence and absorbance readouts (560–590 and 570–600 nm, respectively) in a spectrophotometer (Tunable microplates reader VersaMax; Molecular Devices). Additionally, cell morphology aspects were evaluated in a light microscope, as well as the contractability, density and cytoplasmic vacuolization. Cell viability rates were then determined by the LC50 values that correspond to the compound concentration able to reduce in 50% the viability of the cell population.
# [2] = system: bloodstream trypomastigotes of T. cruzi (Y strain); experiment: Activity against bloodstream trypomastigotes (Y strain), light microscopy count of live parasites; type: cell-based, Trypanosoma cruzi; conditions: for SI (Selectivity Index), bloodstream trypomastigotes: LC50 cardiac cell cultures / EC50 bloodstream trypomastigotes
# Method: In addition, the activity of both natural products was also evaluated against bloodstream trypomastigotes (BT), another relevant form of T. cruzi in mammalian hosts (Table 2). […] As cardiomyopathy is one of the main chronic symptoms of CD, next, the cardiotoxicity profile was assessed using primary cultures of mouse cardiac cells (CC) incubated with increasing concentration of both biomolecules and Bz. After […] of incubation with both extracts, no evident cardiac alterations related to cellular density and morphology was observed by light microscopy.
# Bloodstream trypomastigotes (BT) of the T. cruzi Y strain (DTU II) were obtained by cardiac punction from Swiss Webster mice during the parasitemia peak and the purified parasites were resuspended in Dulbecco’s modified Eagle medium (DMEM) (Cultilab) supplemented with 10% fetal bovine serum (FBS).
# [3] = system: L929 cell lines; experiment: in vitro; type: cell-based
# Method: as §1, §2
# [4] = in vitro; type: cell-based
# Method: as §1, §2
# [5] = system: intracellular forms of T. cruzi (Tulahuen strain); experiment: Activity against intracellular forms of T. cruzi (Tulahuen-β gal strain) in infected L929 cell lines, CPRG readout; type: cell-based, Trypanosoma cruzi; conditions: for SI (Selectivity Index), intracellular forms: LC50 L929 / EC50 intracellular forms; for inhibition at 10 µM / EC50: Trypanosoma cruzi
# Method: The crude extracts and the resulting fractions were evaluated following a well standardized protocol of phenotypic analysis for novel drug candidates for CD [25]. The first approach was the screening against intracellular amastigotes (Tulahuen-β gal strain, DTU VI) using a fixed concentration of 10 µg/mL, which corresponds to the 90% effective concentration (EC90)value of the reference drug (Bz) for CD (Table 1). The leaves fraction using dichloromethane from Aureliana fasciculata var. fasciculata (AFfPD) sterilized T. cruzi infection in L929 cell lines, leading to 100% of infection reduction. […] Natural products from fruit pulp of C. cujete have no trypanocidal effect at a concentration of 10 µg/mL.
# Culture derived trypomastigotes of Tulahuen strain (DTU VI), transfected with the β-galactosidase gene from Escherichia coli, were collected from the supernatant of previously infected L929 fibroblasts. Trypomastigotes were used to infect L929 cultures at a ratio of 10:1 (parasites/host cell) to determine activity against intracellular forms. After 2 h of interaction, the cultures were washed for the removal of remaining parasites and incubated for 48 h to ensure the establishment of the infection. On the first set of assays, the compounds were added in a fixed concentration (10 µg/mL or 10 µM for the extracts and purified fractions, respectively) that corresponds to EC90 of Bz. The non-infected cells (controls) were treated with DMSO and Bz and were also evaluated. The compounds that reached the same or higher activity than Bz were later evaluated in assays with increasing concentrations (serially diluted (7-fold): 0–50 µg/mL for extracts and fractions and 0–50 µM for purified compounds and Bz) for the determination of the EC50 and EC90 values (minimal concentration able to reduce to 50% and 90% of the infection index in cultures). In both assays the cultures were maintained at 37 °C for 96 h to enable the calculation of the inhibition percentage on the infection. Thereafter, 500 μM of substrate CPRG (chlorophenol red-β-D-galactopiranosideo) in 0.5% Nonidet P40 (Sigma-Aldrich, St. Louis, MO, United States) were added to the in vitro system. The plates were incubated for 18 h at 37 °C and, following, the absorbance was measured at 570 nm. […] All the assays were conducted in duplicate at least three times.
# [6] = system: promastigotes of L. amazonensis; design: method as in PMID 30513673; conditions: cited from earlier work
# [7] = system: L. amazonensis infected macrophages; design: method as in PMID 30513673; conditions: cited from earlier work; for EC50: read-out: EC50 upon infected macrophages
# [8] = system: cell-derived trypomastigotes; design: method as in PMID 28177047; conditions: cited from earlier work
# [9] = Trypanosoma cruzi, 2 h, read-out: EC50 bloodstream trypomastigotes, 2 h, Y strain
# [10] = Trypanosoma cruzi, 24 h, read-out: EC50 bloodstream trypomastigotes, 24 h, Y strain
# [11] = Trypanosoma cruzi, 24 h, read-out: EC90 bloodstream trypomastigotes
# [12] = TULAHUEN, L929, 96 h, read-out: % of Infection Reduction, 10 μM, 96 h of incubation, L929 cell line infected with Tulahuen strain
# [13] = TULAHUEN, L929, 96 h, read-out: EC50 intracellular forms
# [14] = Trypanosoma cruzi, 2 h, Y strain, read-out: EC50 bloodstream trypomastigotes
# [15] = Trypanosoma cruzi, 24 h, Y strain, read-out: EC50 bloodstream trypomastigotes
# [16] = Trypanosoma cruzi, 24 h, Y strain, read-out: EC90 bloodstream trypomastigotes
# [17] = TULAHUEN, L929, 96 h, 10 μM, 96 h of incubation, L929 cell line infected with Tulahuen strain, read-out: % of Infection Reduction
# [18] = 96 h, Tulahuen strain, L929 host cells, read-out: EC50 intracellular forms
molecule,measurement,setting,value
"O=C(Cn1ccnc1[N+](=O)[O-])NCc1ccccc1 [Bz, Benznidazole, reference compound]",CC50 at 24 h,[1],> 750 µg/mL and > 750 µM
same,"SI (Selectivity Index), bloodstream trypomastigotes","[2]; 24 h, µM data",>57.1
same,"SI (Selectivity Index), bloodstream trypomastigotes","[2]; 24 h, μg/mL data",>83
same,EC50,"[2]; Trypanosoma cruzi, 2 h, read-out: EC50 bloodstream trypomastigotes (Y strain), 2 h",> 50 mg/L
same,EC50,[2]; [9],> 50 µM
same,EC90,"[2]; Trypanosoma cruzi, 2 h, read-out: EC90 bloodstream trypomastigotes (Y strain)",> 50 mg/L
same,EC50,"[2]; Trypanosoma cruzi, 24 h, read-out: EC50 bloodstream trypomastigotes (Y strain), 24 h",10.2 ± 0.3 mg/L
same,EC50,[2]; [10],13.1 ± 3.9 µM
same,EC90,[2]; [11],31.3 ± 8.8 µM
same,EC90,"[2]; Trypanosoma cruzi, 24 h, read-out: EC90 bloodstream trypomastigotes (Y strain)",23.3 ± 0.6 mg/L
same,LC50 L929 cell lines,[3],not toxic up to the higher tested concentration
same,CC50 at 96 h,[4]; mouse,> 200 µg/mL and > 200 µM
same,"SI (Selectivity Index), intracellular forms","[5]; 96 h, µM data",>66.6
same,"SI (Selectivity Index), intracellular forms","[5]; 96 h, μg/mL data",> 52
same,inhibition at 10 µM,[5]; [12],92 ± 7%
same,EC50,[5]; [13],3 ± 0.6 µM
same,EC50,"[5]; TULAHUEN, L929, 96 h, read-out: EC50 intracellular forms (Tulahuen strain)",3.8 ± 1.8 mg/L
same,% of Infection Reduction after 96 h of Incubation,"[5]; fixed concentration of 10 µg/mL, L929 cell lines infected with Tulahuen strain, 96 h",90.5 ± 5.7%
"CC(=O)O[C@@H]1CC2C3C[C@H]4O[C@]45[C@@H](O)C=CC(=O)[C@]5(C)C3CC[C@]2(C)[C@@]1(O)[C@H](C)C1CC(C)=C(C)C(=O)O1 (stereo partly shown) [Compound 1, Aurelianolide A]",CC50 at 24 h,[1],16.4 ± 1.3 µM
same,"SI (Selectivity Index), bloodstream trypomastigotes","[2]; 24 h, µM data",2.9
same,EC50,[2]; [14],> 50 µM
same,EC50,[2]; [15],5.68 ± 2.3 µM
same,EC90,[2]; [16],8.33 ± 3.9 µM
same,activity against promastigotes of L. amazonensis,[6],active
same,CC50 at 96 h,[4]; mouse,42.1 ± 28.3 µM
same,"SI (Selectivity Index), intracellular forms","[5]; 96 h, µM data",9.15
same,inhibition at 10 µM,[5]; [17],> 90%
same,EC50,[5]; [18],4.6 ± 1.3 µM
same,"selectivity indexes, infected macrophages",[7],5.6
same,EC50,[7],2.3 µM
"CC(=O)O[C@@H]1CC2C3CC=C4[C@@H](O)C=CC(=O)[C@]4(C)C3CC[C@]2(C)[C@@]1(O)[C@H](C)C1CC(C)=C(C)C(=O)O1 (stereo partly shown) [Compound 2, Aurelianolide B]",CC50 at 24 h,[1],30.9 ± 3.8 µM
same,"SI (Selectivity Index), bloodstream trypomastigotes","[2]; 24 h, µM data",5.4
same,EC50,[2]; [14],> 50 µM
same,EC50,[2]; [15],5.72 ± 1.3 µM
same,EC90,[2]; [16],9.25 ± 3.2 µM
same,activity against promastigotes of L. amazonensis,[6],active
same,CC50 at 96 h,[4]; mouse,27.4 ± 1 µM
same,"SI (Selectivity Index), intracellular forms","[5]; 96 h, µM data",17.1
same,inhibition at 10 µM,[5]; [17],> 90%
same,EC50,[5]; [18],1.6 ± 0.4 µM
same,"selectivity indexes, infected macrophages",[7],2.0
same,EC50,[7],6.43 µM
"C[C@H]1[C@@H](O)CCC2[C@]3(C)CC[C@@]4(C)C5CC(C)(C)CC[C@]5(C)CC[C@]4(C)C3CC[C@@]21C (stereo partly drawn) [Compound 3, 3 beta-friedelanol]",inhibition at 10 µM,[5]; [17],21 ± 10%
"C[C@H]1C(=O)CC[C@@H]2[C@]1(C)CC[C@H]1[C@@]2(C)CC[C@@]2(C)[C@@H]3CC(C)(C)CC[C@]3(C)CC[C@]12C [Compound 6, Friedelin]",inhibition at 10 µM,[5]; [17],0%
"COc1cc([C@H]2O[C@H](c3cc(OC)c(OC)c(OC)c3)[C@@H](C)[C@@H]2C)cc(OC)c1OC [Compound 7, (-)-grandisin]",inhibition at 10 µM,[5]; [17],25 ± 36%
"COc1cc(/C=C/C(=O)N2CCC=CC2=O)cc(OC)c1OC [Compound 8, Piplartine]",CC50 at 24 h,"[1]; 24 h, read-out: LC50 cardiac cell cultures",33.1 ± 5.9 µM
same,"SI (Selectivity Index), bloodstream trypomastigotes","[2]; 24 h, µM data",6.2
same,EC50,[2]; [9],> 50 µM
same,EC50,[2]; [10],5.4 µM
same,EC90,[2]; [11],14.4 ± 5.8 µM
same,EC50,"[2]; read-out: EC50 bloodstream trypomastigotes, 24 h, Y strain",5.38 ± 0.3 µM
same,CC50 at 96 h,"[4]; 96 h, read-out: LC50 L929 cell lines",73.1 ± 75.5 µM
same,"SI (Selectivity Index), intracellular forms","[5]; 96 h, µM data",9
same,inhibition at 10 µM,[5]; [12],~50%
same,EC50,[5]; [13],8.1 ± 0.9 µM
C=CC(C)(O)CCC=C(C)C (stereo not shown) [linalool],selectivity index,[8]; cell-derived trypomastigotes,2.9
same,EC50 against cell-derived trypomastigotes,[8],0.31 mg/L
Oleanolic acid [Compound 4],% of Infection Reduction,"[5]; 10 μM, 96 h of incubation, L929 cell line infected with Tulahuen strain",20 ± 18%
